Measurements: ChEMBL document CHEMBL3301472, “MMV Malaria Box HIV and cytotoxicity screening”

Columns and labels:
[1] = MMV: MTT Cytotoxicity Assay Day 3 pi, U87-CD4-CXCR4 cells, % cell death @ 5mM compound; assay type: toxicity, cell-based; conditions: human, u87-cd4-cxcr4, 5000 µM
[2] = MMV: MTT Cytotoxicity Assay Day 7 pi of Assay #7 (compound washed out Day 1 pi), U87-CD4-CXCR4 cells, % cell death @ 5mM compound; assay type: toxicity, cell-based; conditions: human, u87-cd4-cxcr4, 5000 µM
[3] = MMV: MTT Cytotoxicity Assay Day 7 pi of Assay #11 (NO washout), U87-CD4-CXCR4 cells, % cell death @ 5mM compound; assay type: toxicity, cell-based; conditions: human, u87-cd4-cxcr4, 5000 µM
[4] = MMV: MTT Cytotoxicity Assay Day 3 pi, U87-CD4-CCR5 cells, % cell death @ 5mM compound; assay type: toxicity, cell-based; conditions: human, u87-cd4-ccr5, 5000 µM
[5] = MMV: MTT Cytotoxicity Assay Day 7 pi of Assay #6 (compound washed out Day 1 pi), U87-CD4-CCR5 cells, % cell death @ 5mM compound; assay type: toxicity, cell-based; conditions: human, u87-cd4-ccr5, 5000 µM
[6] = tested on: Human immunodeficiency virus 1; assay: MMV: HIV NL4-3 CXCR4-tropic replication-competent virus, NO washout, P24 ELISA Day 7 pi, U87-CD4-CXCR4, % inhibition at 5 mM compound; assay type: functional; set-up: dose or concentration left out as unconfirmed; conditions: Human immunodeficiency virus 1, NL4-3, U87.CD4.CXCR4, 168 h
[7] = MMV: MTT Cytotoxicity Assay Day 7 pi of Assay #10 (NO washout), U87-CD4-CCR5 cells, % cell death @ 5mM compound; assay type: toxicity, cell-based; conditions: human, u87-cd4-ccr5, 5000 µM
[8] = tested on: Human immunodeficiency virus 1; assay: MMV: HIV CCR5-tropic env JRFL pseudovirus assay produces luciferase signal in lieu of replicating viral particles Day 3 pi, U87-CD4-CCR5, % inhibition at 5 mM compound; assay type: functional; set-up: dose or concentration left out as unconfirmed; conditions: Human immunodeficiency virus 1, JR-FL, U87/CD4/CCR5, 72 h
[9] = tested on: Human immunodeficiency virus 1; assay: MMV: HIV JRFL CCR5-tropic replication-competent virus, NO washout, P24 ELISA Day 7 pi, U87-CD4-CCR5, % inhibition at 5 mM compound; assay type: functional; set-up: dose or concentration left out as unconfirmed; conditions: Human immunodeficiency virus 1, JR-FL, U87/CD4/CCR5, 168 h
[10] = tested on: Human immunodeficiency virus 1; assay: MMV: HIV CXCR4-tropic env NL4-3 pseudovirus assay produces luciferase signal in lieu of replicating viral particles Day 3 pi, U87-CD4-CXCR4, % inhibition at 5 mM compound; assay type: functional; set-up: dose or concentration left out as unconfirmed; conditions: Human immunodeficiency virus 1, NL4-3, U87.CD4.CXCR4, 72 h
[11] = tested on: Human immunodeficiency virus 1; assay: MMV: HIV JRFL CCR5-tropic replication-competent virus, virus & compound washed out Day 1 pi, P24 ELISA Day 7 pi, U87-CD4-CCR5, % inhibition at 5 mM compound; assay type: functional; set-up: dose or concentration left out as unconfirmed; conditions: Human immunodeficiency virus 1, JR-FL
[12] = tested on: Human immunodeficiency virus 1; assay: MMV: HIV CXCR4-tropic env HxB2 pseudovirus assay produces luciferase signal in lieu of replicating viral particles Day 3 pi, U87-CD4-CXCR4, % inhibition at 5 mM compound; assay type: functional; set-up: dose or concentration left out as unconfirmed; conditions: Human immunodeficiency virus 1, HxB2, U87.CD4.CXCR4, 72 h
[13] = tested on: Human immunodeficiency virus 1; assay: MMV: HIV NL4-3 CXCR4-tropic replication-competent virus, virus & compound washed out Day 1 pi, P24 ELISA Day 7 pi, U87-CD4-CXCR4, % inhibition at 5 mM compound; assay type: functional; set-up: dose or concentration left out as unconfirmed; conditions: Human immunodeficiency virus 1, NL4-3, U87.CD4.CXCR4

## COc1cccc(Cn2c(Oc3ccccc3)nc3c2c(=O)n(C)c(=O)n3C)c1
[1]
  % Cell Death: 15
[2]
  % Cell Death: 3
[3]
  % Cell Death: 32
[4]
  % Cell Death: -1
[5]
  % Cell Death: 32
[6]
  inhibition: 9%
[7]
  % Cell Death: 39

## Cc1sc(NC(=O)c2ccco2)c(C(c2cccnc2)N2CCC(Cc3ccccc3)CC2)c1C (centres undefined)
[1]
  % Cell Death: 88
[2]
  % Cell Death: 94
[3]
  % Cell Death: 104
[4]
  % Cell Death: 110
[5]
  % Cell Death: 81
[8]
  inhibition: 8%
[7]
  % Cell Death: 107

## COc1cccc(C2(C)Nc3ccccc3-c3nc4ccccc4n32)c1 (centres undefined)
[1]
  % Cell Death: 28
[2]
  % Cell Death: 25
[3]
  % Cell Death: 92
[4]
  % Cell Death: -22
[5]
  % Cell Death: 37
[8]
  inhibition: 9%
[7]
  % Cell Death: 35

## CCN1CCN(Cc2ccc(NC(=O)c3cc4ccc5cccnc5c4[nH]3)cc2)CC1
[1]
  % Cell Death: 22
[2]
  % Cell Death: -2
[9]
  inhibition: 3%
[3]
  % Cell Death: 26
[4]
  % Cell Death: -23
[5]
  % Cell Death: 38
[7]
  % Cell Death: 9

## CCc1c(C)c(=N)c2ccccc2n1C.I
[1]
  % Cell Death: 100
[2]
  % Cell Death: -17
[9]
  inhibition: 8%
[3]
  % Cell Death: -5
[4]
  % Cell Death: 22
[5]
  % Cell Death: 30
[7]
  % Cell Death: -10

## CCN(CC)CCn1c(=N)n(CC(O)c2ccc(Cl)c(Cl)c2)c2ccccc21.Cl (centres undefined)
[1]
  % Cell Death: 4
[2]
  % Cell Death: 20
[3]
  % Cell Death: 52
[10]
  inhibition: 10%
[4]
  % Cell Death: 18
[5]
  % Cell Death: 14
[6]
  inhibition: 0%
[7]
  % Cell Death: -29

## CCN1CCN(c2cc(C)c3cc(NC(=O)c4ccc(OC)c(OC)c4)ccc3n2)CC1
[1]
  % Cell Death: 36
[2]
  % Cell Death: 61
[9]
  inhibition: -2%
[3]
  % Cell Death: 55
[4]
  % Cell Death: 95
[5]
  % Cell Death: 93
[7]
  % Cell Death: 43

## CC(=O)Nc1nnc(SCc2c(C)cc(C(C)(C)C)cc2C)s1
[1]
  % Cell Death: 27
[2]
  % Cell Death: 10
[3]
  % Cell Death: 6
[4]
  % Cell Death: 14
[5]
  % Cell Death: 3
[8]
  inhibition: 8%
[7]
  % Cell Death: 3

## COc1ccc(C(=O)Nc2nonc2-c2ccc(OC)c(OC)c2)cc1Cl
[1]
  % Cell Death: 47
[11]
  inhibition: 6%
[2]
  % Cell Death: 53
[12]
  inhibition: 9%
[3]
  % Cell Death: 67
[4]
  % Cell Death: 64
[5]
  % Cell Death: 13
[8]
  inhibition: 5%
[7]
  % Cell Death: 100

## Cc1ccc(OCCCCCCNCCO)c(C)c1
[1]
  % Cell Death: 28
[2]
  % Cell Death: -10
[3]
  % Cell Death: -10
[4]
  % Cell Death: -3
[5]
  % Cell Death: 30
[8]
  inhibition: -2%
[7]
  % Cell Death: 15

## COc1ccc(C(=O)Nc2ccc(Cl)cc2C(=O)Nc2ccncc2)cc1
[1]
  % Cell Death: 22
[2]
  % Cell Death: -11
[9]
  inhibition: 0%
[3]
  % Cell Death: 33
[4]
  % Cell Death: 14
[5]
  % Cell Death: -7
[7]
  % Cell Death: 0

## O=C(NC1CCN(Cc2ccccc2)CC1)c1cc(-c2cccnc2)nc2ccc(Cl)cc12
[1]
  % Cell Death: 34
[2]
  % Cell Death: -10
[12]
  inhibition: 8%
[3]
  % Cell Death: 40
[4]
  % Cell Death: -9
[5]
  % Cell Death: 11
[8]
  inhibition: 8%
[7]
  % Cell Death: 43

## O=C1c2ccc3c4c(ccc(c24)C(=O)N1CCCCO)C(=O)N(CCCCO)C3=O
[1]
  % Cell Death: 27
[2]
  % Cell Death: -43
[3]
  % Cell Death: -30
[4]
  % Cell Death: 39
[5]
  % Cell Death: 16
[6]
  inhibition: 2%
[7]
  % Cell Death: 61

## Nc1ccc(-c2nc3cc(Oc4ccc(Oc5ccc6[nH]c(-c7ccc(N)cc7)nc6c5)cc4)ccc3[nH]2)cc1
[1]
  % Cell Death: 51
[2]
  % Cell Death: 68
[3]
  % Cell Death: 21
[4]
  % Cell Death: 21
[5]
  % Cell Death: 12
[8]
  inhibition: 4%
[7]
  % Cell Death: 113

## CCOC(=O)c1cnc2ccc(OC)cc2c1Nc1ccc(N2CCN(C)CC2)cc1
[13]
  inhibition: 8%
[1]
  % Cell Death: 37
[2]
  % Cell Death: 17
[12]
  inhibition: -1%
[3]
  % Cell Death: -14
[10]
  inhibition: 6%
[4]
  % Cell Death: -13
[5]
  % Cell Death: 5
[8]
  inhibition: -2%
[7]
  % Cell Death: 11

## COc1ccccc1C(=O)ON=C(N)Cc1cccc2ccccc12
[1]
  % Cell Death: 47
[2]
  % Cell Death: 42
[3]
  % Cell Death: -11
[10]
  inhibition: 1%
[4]
  % Cell Death: 23
[5]
  % Cell Death: -17
[6]
  inhibition: 0%
[7]
  % Cell Death: 43

## CC(C)CCNCC(O)Cn1c2ccccc2c2ccccc21.Cl (centres undefined)
[1]
  % Cell Death: 32
[2]
  % Cell Death: -6
[3]
  % Cell Death: -6
[4]
  % Cell Death: 6
[5]
  % Cell Death: -10
[6]
  inhibition: 1%
[7]
  % Cell Death: -11

## Cc1cc(C)c2c(c1)OCN(Cc1ccccc1Cl)C2
[1]
  % Cell Death: 31
[2]
  % Cell Death: -14
[9]
  inhibition: -2%
[3]
  % Cell Death: 33
[4]
  % Cell Death: -12
[5]
  % Cell Death: 20
[7]
  % Cell Death: -6

## COc1cc(OC)c(N(C)C(=O)c2cc3c(s2)-c2ccccc2S(=O)(=O)C3)cc1Cl
[13]
  inhibition: 7%
[1]
  % Cell Death: 33
[2]
  % Cell Death: -18
[3]
  % Cell Death: -30
[4]
  % Cell Death: 28
[5]
  % Cell Death: 22
[6]
  inhibition: 2%
[7]
  % Cell Death: -2

## Cc1ccccc1OCCSc1nc2ccc(NC(=O)c3ccccc3)cc2s1
[1]
  % Cell Death: 36
[2]
  % Cell Death: 1
[3]
  % Cell Death: 100
[4]
  % Cell Death: 96
[5]
  % Cell Death: 31
[8]
  inhibition: 10%
[7]
  % Cell Death: 106

## CCCc1cc(O)c2c3c(c(=O)oc2c1)CN(C)CC3
[1]
  % Cell Death: 44
[2]
  % Cell Death: 57
[3]
  % Cell Death: 40
[10]
  inhibition: 4%
[4]
  % Cell Death: 22
[5]
  % Cell Death: -8
[6]
  inhibition: 6%
[7]
  % Cell Death: 45

## COc1ccc(-c2nonc2NC(=O)c2cccc(Cl)c2)cc1OC
[1]
  % Cell Death: 45
[2]
  % Cell Death: 49
[3]
  % Cell Death: 97
[4]
  % Cell Death: 61
[5]
  % Cell Death: 13
[8]
  inhibition: -2%
[7]
  % Cell Death: 100

## c1ccc(CNc2nc(Nc3ccccc3)nc3ccccc23)cc1
[1]
  % Cell Death: 53
[2]
  % Cell Death: -7
[12]
  inhibition: 9%
[3]
  % Cell Death: 0
[4]
  % Cell Death: 36
[5]
  % Cell Death: -8
[6]
  inhibition: -2%
[8]
  inhibition: 6%
[7]
  % Cell Death: 27

## OC1CCCCC1C1(NC(=S)Nc2ccccc2)CCCCC1 (centres undefined)
[1]
  % Cell Death: 11
[11]
  inhibition: 7%
[2]
  % Cell Death: 29
[3]
  % Cell Death: -25
[4]
  % Cell Death: 23
[5]
  % Cell Death: -5
[6]
  inhibition: 8%
[7]
  % Cell Death: 4

## CCCCCCOC(=O)C1=C(C)NC(=O)NC1c1ccccc1F (centres undefined)
[1]
  % Cell Death: 29
[2]
  % Cell Death: -33
[12]
  inhibition: 3%
[3]
  % Cell Death: -34
[4]
  % Cell Death: 16
[5]
  % Cell Death: -10
[8]
  inhibition: -2%
[7]
  % Cell Death: 40

## Br.CCN(CC)S(=O)(=O)c1ccc(-c2csc(Nc3ccc(C)c(C)c3)n2)cc1
[13]
  inhibition: 3%
[1]
  % Cell Death: 29
[2]
  % Cell Death: -19
[3]
  % Cell Death: 11
[4]
  % Cell Death: -17
[5]
  % Cell Death: 20
[8]
  inhibition: -2%
[7]
  % Cell Death: 26

## CCCn1c(=N)c(C(=O)NC2CCCCC2)cc2c(=O)n3cccc(C)c3nc21
[1]
  % Cell Death: 35
[2]
  % Cell Death: -17
[3]
  % Cell Death: -51
[4]
  % Cell Death: 29
[5]
  % Cell Death: 0
[6]
  inhibition: 4%
[7]
  % Cell Death: 43

## Cc1ccc(S(=O)(=O)c2c(COC(=O)c3cccc(C)c3)c(-c3ccccc3)nn2C)cc1
[1]
  % Cell Death: 22
[11]
  inhibition: 5%
[2]
  % Cell Death: 22
[3]
  % Cell Death: 31
[4]
  % Cell Death: 27
[5]
  % Cell Death: 5
[6]
  inhibition: 7%
[7]
  % Cell Death: 16

## Nc1ccn([C@@H]2O[C@H](CO)[C@@H](O)[C@H]2O)c(=O)n1 [CYTIDINE]
[1]
  % Cell Death: 28
[2]
  % Cell Death: 24
[3]
  % Cell Death: 0
[4]
  % Cell Death: -30
[5]
  % Cell Death: -9
[6]
  inhibition: 6%
[7]
  % Cell Death: 26
